Test results as given in patent publication US20120251551A1, “Substituted (Heteroarylmethyl)thiohydantoins” (BAYER PHARMA AKTIENGESELLSCHAFT, priority 2009, published 2012).
Where a chain is given by its changes, count along the chain named. Read-outs that look alike come from different tables or passages of the source.

Columns and labels:
[1] = target: T1, human androgen receptor W741C mutant (Homo sapiens, UniProt P10275, W742C); assay: Cell-based transactivation assay for human androgen receptor mutant W741C
T1 construct: expressed in transfected cells; host or cells: PC-3 cells, transient transfection with a pSG5-derived plasmid
T1 sequence (P10275 1-920 W742C): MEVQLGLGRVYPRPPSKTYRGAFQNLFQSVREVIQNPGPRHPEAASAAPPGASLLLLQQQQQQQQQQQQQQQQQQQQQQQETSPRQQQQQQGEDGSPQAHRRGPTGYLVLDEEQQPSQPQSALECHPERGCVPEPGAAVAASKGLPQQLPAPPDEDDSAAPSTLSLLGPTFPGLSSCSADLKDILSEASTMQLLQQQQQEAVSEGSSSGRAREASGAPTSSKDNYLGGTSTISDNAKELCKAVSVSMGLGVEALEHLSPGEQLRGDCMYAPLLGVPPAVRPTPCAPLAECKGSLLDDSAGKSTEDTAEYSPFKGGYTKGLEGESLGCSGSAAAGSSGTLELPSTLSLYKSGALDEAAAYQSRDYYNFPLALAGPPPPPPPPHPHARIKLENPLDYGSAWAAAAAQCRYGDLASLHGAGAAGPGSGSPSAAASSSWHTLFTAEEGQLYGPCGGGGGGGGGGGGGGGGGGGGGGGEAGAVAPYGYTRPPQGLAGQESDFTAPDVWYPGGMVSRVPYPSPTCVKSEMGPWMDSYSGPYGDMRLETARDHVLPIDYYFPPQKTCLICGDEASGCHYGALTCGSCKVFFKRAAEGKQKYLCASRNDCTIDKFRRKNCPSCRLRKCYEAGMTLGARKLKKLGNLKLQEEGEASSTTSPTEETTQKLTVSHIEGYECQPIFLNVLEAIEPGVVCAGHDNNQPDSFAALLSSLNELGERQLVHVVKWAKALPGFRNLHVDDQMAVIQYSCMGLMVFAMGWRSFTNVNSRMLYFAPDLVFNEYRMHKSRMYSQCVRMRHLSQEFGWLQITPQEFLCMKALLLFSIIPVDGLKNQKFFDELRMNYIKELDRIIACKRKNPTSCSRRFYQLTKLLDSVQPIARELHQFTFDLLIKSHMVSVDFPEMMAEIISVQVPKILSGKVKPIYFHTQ
Experimental: (§1) Cell-Based Transactivation Assay for Human Androgen Receptor Mutant W741L or W741C
(§2) PC-3 cells (Kaighn et al., Invest. Urol. 17:16-23, 1979) were grown in 5% charcoal-stripped medium and seeded at a concentration of 10000 cells per well in a 96-well plate. They were transiently transfected with a pSG5-derived plasmid (#216201 from Stratagene, La Jolla, Calif., USA) coding for the human androgen receptor W741L or W741C mutant Mara et al., Cancer Research, 63: 149-153, 2003) and an MMTV-Luciferase reporter plasmid based on pGL4.14 14 (#E6691, Promega Corporation, Madison, Wis., USA). The compound to be tested was added at a concentration range varying from 1×10^−9 to 1×10 M together with 1×10^−10 R1881. After 24 h incubation at 37° C. in a 5% CO2 atmosphere, 100 μl of Steady Glo Lysis and Detection reagent (Steady Glo Luciferase assay system E2550 from Promega Corporation. Madison, Wis., USA) were added. Antagonistic activity was determined by measuring Luciferase activity in a Victor 3 Luminometer (PerkinElmer, Waltham, Mass., USA) using the Steady Glo Luciferase Assay (E2550, Promega). IC50 values were calculated for anti-androgenic activity.

VCaP cells = assay: Proliferation assay with VCaP cells; format: cell-based; conditions: Homo sapiens, 168 h, R1881 (1×10^−10) stimulated growth
Procedure, shortened: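 Cells in DMEM with 10% charcoal-stripped serum treated one day after seeding with R1881 (1×10^−10) plus compound. Cell number read by Alamar Blue fluorescence (ex 530/em 590 nm) at day 0 and day 7; day-7 R1881-only signal defines stimulated growth, day-7 signal without R1881 defines basal level.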

[2] = target: T2, human androgen receptor W741L mutant (Homo sapiens, UniProt P10275, W742L); assay: Cell-based transactivation assay for human androgen receptor mutant W741L
T2 construct: expressed in transfected cells; host or cells: PC-3 cells, transient transfection with a pSG5-derived plasmid
T2 sequence (P10275 1-920 W742L): T1 sequence (P10275 1-920 W742C) with C742L
Experimental: as §1, §2

LNCaP cells = assay: Proliferation assay with LNCaP cells; format: cell-based; conditions: Homo sapiens, 168 h, R1881 (1×10^−10) stimulated growth, day 7, read-out: inhibition IC50 (LNCaP)
Procedure, shortened: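 LNCaP cells were grown in phenol red-free RPMI with 5% charcoal-stripped serum and, after 3 days, treated with R1881 (1×10^−10) plus compound. Cell number was measured by Alamar Blue fluorescence at day 0 and day 7. R1881-only signal at day 7 defined stimulated growth, and day-7 signal without R1881 defined basal.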

[3] = day 7, read-out: Antiproliferative activity VCaP IC50
[4] = day 7, read-out: inhibition IC50 (VCaP)

SMILES | IC50 [1] | IC50 (VCaP cells; [3]) | IC50 [2] | IC50 (LNCaP cells) | IC50 (VCaP cells; [4])
CN1C(=S)N(c2ccc(C#N)c(C(F)(F)F)c2)C(=O)C1(C)C [2-(Trifluoromethyl)-4-(3,4,4-trimethyl-5-oxo-2-thioxoimidazolidin-1-yl)benzonitrile, reference compound] | 21.2 nM | > 1000 nM | 159 nM | – | –
CC1(C)C(=O)N(c2ccc(C#N)c(C(F)(F)F)c2)C(=S)N1CCCCO [4-[3-(4-Hydroxybutyl)-4,4-dimethyl-5-oxo-2-thioxoimidazolidin-1-yl]-2-(trifluoromethyl)benzonitrile, reference compound] | 27.1 nM | > 1000 nM | 89.7 nM | – | –
CC1(C)C(=O)N(c2ccc(C#N)c(C(F)(F)F)c2)C(=S)N1Cc1ccc(F)cc1 [Comparative data^4] | > 1000 nM | > 1000 nM | > 1000 nM | – | –
CC1(C)C(=O)N(c2ccc(C#N)c(C(F)(F)F)c2)C(=S)N1Cc1ccccc1 [Comparative data^4] | 142 nM | > 1000 nM | 166 nM | – | –
CC1(C)C(=O)N(c2ccc(C#N)c(C(F)(F)F)c2)C(=S)N1Cc1ccc(-n2ccnc2)nc1 [Example 1, 4-(3-{[6-(1H-Imidazol-1-yl)pyridin-3-yl]methyl}-4,4-dimethyl-5-oxo-2-thioxoimidazolidin-1-yl)-2-(trifluoromethyl)benzonitrile] | 216 nM | 291 nM | 173 nM | 59 nM | –
CC1(C)C(=O)N(c2ccc(C#N)c(C(F)(F)F)c2)C(=S)N1Cc1ccc(C(F)(F)F)nc1 [Example 2, 4-(4,4-Dimethyl-5-oxo-2-thioxo-3-{[6-(trifluoromethyl)pyridin-3-yl]methyl}imidazolidin-1-yl)-2-(trifluoromethyl)benzonitrile] | – | 247 nM | 86.7 nM | 314 nM | –
CC1(C)C(=O)N(c2ccc(C#N)c(C(F)(F)F)c2)C(=S)N1Cc1ccc(N2CCOCC2)nc1 [Example 4, 4-(4,4-Dimethyl-3-{[6-(morpholin-4-yl)pyridin-3-yl]methyl}-5-oxo-2-thioxoimidazolidin-1-yl)-2-(trifluoromethyl)benzonitrile] | 270 nM | 124 nM | 89.2 nM | 117 nM | 124 nM
CC1(C)C(=O)N(c2ccc(C#N)c(C(F)(F)F)c2)C(=S)N1Cc1ccc(N2CCS(=N)(=O)CC2)nc1 [Example 9, 4-(3-{[6-(1-Imino-1-oxido-1λ^6-thiomorpholin-4-yl)pyridin-3-yl]methyl}-4,4-dimethyl-5-oxo-2-thioxoimidazolidin-1-yl)-2-(trifluoromethyl)benzonitrile] | – | – | 275 nM | 303 nM | –
CC(C)(O)COc1ccc(CN2C(=S)N(c3ccc(C#N)c(C(F)(F)F)c3)C(=O)C2(C)C)cn1 [Example 10, 4-(3-{[6-(2-Hydroxy-2-methylpropoxy)pyridin-3-yl]methyl}-4,4-dimethyl-5-oxo-2-thioxoimidazolidin-1-yl)-2-(trifluoromethyl)benzonitrile] | 115 nM | 229 nM | 285 nM | 283 nM | 229 nM
Cc1nc(C(F)(F)F)ccc1CN1C(=S)N(c2ccc(C#N)c(C(F)(F)F)c2)C(=O)C1(C)C [Example 13, 4-(4,4-Dimethyl-3-{[2-methyl-6-(trifluoromethyl)pyridin-3-yl]methyl}-5-oxo-2-thioxoimidazolidin-1-yl)-2-(trifluoromethyl)benzonitrile] | – | 300 nM | 93.7 nM | 124 nM | –
